The test concerns the target Retinol-binding protein 4 (Homo sapiens, UniProt P02753). Kind of test: Scintillation Proximity RBP4 Binding Assay. The method, then: Untagged human RBP4 purified from the urine of tubular proteinuria patients was purchased from Fitzgerald Industries International. It was biotinylated using the EZ-Link Sulfo-NHS-LC-Biotinylation kit from Pierce following the manufacturer's recommendations. […] Nonspecific binding was determined in the presence of 20 μM of unlabeled retinol. The reaction mix was assembled in the dark under dim red light. The plates were sealed with clear tape (TopSeal-A: 96-well microplate, PerkinElmer), wrapped in the aluminum foil, and allowed to equilibrate 6 hours at room temperature followed by overnight incubation at +4° C. Radiocounts were measured using a TopCount NXT counter (Packard Instrument Company).

In turn, `O=C(c1c[nH]c2ccncc12)N1C[C@H]2C[C@@H](c3ccccc3C(F)(F)F)C[C@H]2C1` [US12168664, Compound 8b] registered an IC50 of more than 3 µM.

As to `O=C(c1c[nH]c2cnccc12)N1C[C@H]2C[C@@H](c3ccccc3C(F)(F)F)C[C@H]2C1` [US12168664, Compound 8a], the IC50 is more than 3 µM.

The values above are taken from BindingDB's records for patent US12168664 (Columbia University, 2024).
